Data taken from the NIST ThermoML archive (doi:10.1021/acs.jced.7b00288).
Numbers after ± are expanded uncertainties.

Columns and labels:
[1] = Crystal; DTA
[2] = Molar enthalpy of transition or fusion; conditions: Crystal; DSC

Normal melting temperature [1]: 121.68 ± 0.43 °C | Molar enthalpy of transition or fusion [2]: 6.4 ± 0.206 kcal/mol
Structure (SMILES): Cc1ccc(NC(=O)C(C)Cl)cc1 (configuration not stated) [2-chloro-N-(4-methylphenyl)propanamide]
